Consider 7 molecules from ChEMBL document CHEMBL1142959, “Semisynthetic approaches to laspartomycin analogues” (2007).

Values after ≈ are worked out from the molar mass of the structure shown.

Format in all cases: functional
Experiment [1] deals with Staphylococcus aureus. Put plainly: Antimicrobial activity against methicillin-sensitive Staphylococcus aureus Smith ATCC 19636 by tube dilution method.
For experiment [2], the system named is Enterococcus faecium. Put plainly: Antimicrobial activity against vancomycin/multidrug-resistant Enterococcus faecium ATCC 51559 by broth microdilution method.
The test system of experiment [3] is Staphylococcus epidermidis. As to the kind of experiment: Antimicrobial activity against methicillin-resistant Staphylococcus epidermidis ATCC 51625 by broth microdilution method.
For experiment [4], the system named is Staphylococcus aureus. As to the kind of experiment: Antimicrobial activity against vancomycin-intermediate Staphylococcus aureus CDC HIP 5836 by broth microdilution method. Background: Dilution methods test growth across graded concentrations, often in twofold steps.
The subject of experiment [5] is Staphylococcus aureus. As to the kind of experiment: Antimicrobial activity against methicillin-sensitive Staphylococcus aureus Smith ATCC 19636 by broth microdilution method.
Experiment [6] relates to Staphylococcus aureus. Put plainly: Antimicrobial activity against methicillin-resistant Staphylococcus aureus ATCC 43300 by broth microdilution method.
Experiment [7] has as its system Enterococcus faecalis. Put plainly: Antimicrobial activity against vancomycin-sensitive Enterococcus faecalis ATCC 29212 by broth microdilution method.
Setting [8] is: Staphylococcus aureus, Smith, read-out: MIC.

As for `CCCCCCCCCCCCCCCCS(=O)(=O)N[C@@H](Cc1ccccc1)C(=O)N[C@@H](CC(=O)O)C(=O)N[C@H]1CNC(=O)[C@@H]2CCCN2C(=O)[C@H]([C@H](C)CC)NC(=O)[C@H]([C@@H](C)O)NC(=O)CNC(=O)[C@H](CC(=O)O)NC(=O)CNC(=O)[C@H](CC(=O)O)NC(=O)CNC(=O)[C@@H]2CCCCN2C1=O`, the MIC is 4 µg/mL (≈ 2.74 µM) in experiment [1] (setting [8]); 4 µg/mL (≈ 2.74 µM) in experiment [2]; 4 µg/mL (≈ 2.74 µM) in experiment [3]; above 64 µg/mL in experiment [4]; above 64 µg/mL in experiment [5]; 8 µg/mL (≈ 5.48 µM) in experiment [6]. Moreover, the MIC in experiment [7] came out at 2 µg/mL (≈ 1.37 µM).

As for `CCCCCCCCCCCCCCNC(=O)N[C@@H](Cc1ccccc1)C(=O)N[C@@H](CC(N)=O)C(=O)N[C@H]1CNC(=O)[C@@H]2CCCN2C(=O)[C@H]([C@H](C)CC)NC(=O)[C@H]([C@@H](C)O)NC(=O)CNC(=O)[C@H](CC(=O)O)NC(=O)CNC(=O)[C@H](CC(=O)O)NC(=O)CNC(=O)[C@@H]2CCCCN2C1=O`, the MIC in experiment [1] (setting [8]) was 4 µg/mL (≈ 2.84 µM); in experiment [2] it was 8 µg/mL (≈ 5.67 µM); in experiment [3] it was 4 µg/mL (≈ 2.84 µM); in experiment [4] it was 8 µg/mL (≈ 5.67 µM); in experiment [5], 4 µg/mL (≈ 2.84 µM); in experiment [6], 4 µg/mL (≈ 2.84 µM). This molecule also had an MIC in experiment [7] of 2 µg/mL (≈ 1.42 µM).

On to `CCCCCCCCCCCCCCC(=O)N[C@@H](Cc1ccccc1)C(=O)N[C@@H](CC(=O)O)C(=O)N[C@H]1CNC(=O)[C@@H]2CCCN2C(=O)[C@H]([C@H](C)CC)NC(=O)[C@H]([C@@H](C)O)NC(=O)CNC(=O)[C@H](CC(=O)O)NC(=O)CNC(=O)C(CC(=O)O)NC(=O)CNC(=O)[C@@H]2CCCCN2C1=O` (single isomer, unassigned), for which the MIC was found to be 4 µg/mL (≈ 2.86 µM) in experiment [1] (setting [8]); 8 µg/mL (≈ 5.73 µM) in experiment [2]; 4 µg/mL (≈ 2.86 µM) in experiment [3]; 32 µg/mL (≈ 22.9 µM) in experiment [4]; 4 µg/mL (≈ 2.86 µM) in experiment [5]; 4 µg/mL (≈ 2.86 µM) in experiment [6]. This molecule yielded an MIC in experiment [7] of 4 µg/mL (≈ 2.86 µM).

Take `CCCCCCCCCCCCCCC(=O)N[C@@H](CC(=O)O)C(=O)N[C@H]1CNC(=O)[C@@H]2CCCN2C(=O)[C@H]([C@H](C)CC)NC(=O)[C@H]([C@@H](C)O)NC(=O)CNC(=O)[C@H](CC(=O)O)NC(=O)CNC(=O)C(CC(=O)O)NC(=O)CNC(=O)[C@@H]2CCCCN2C1=O` (single isomer, unassigned): the MIC in experiment [1] is 2 µg/mL (≈ 1.6 µM); in experiment [2], 4 µg/mL (≈ 3.2 µM); in experiment [3], 8 µg/mL (≈ 6.4 µM); in experiment [4], 16 µg/mL (≈ 12.8 µM); in experiment [5], 4 µg/mL (≈ 3.2 µM); in experiment [6] it was 4 µg/mL (≈ 3.2 µM). In experiment [7], this molecule came in with an MIC of 4 µg/mL (≈ 3.2 µM).

Consider `CCCCCCCCCCCCCCC(=O)N[C@@H](CCCCN)C(=O)N[C@@H](CC(=O)O)C(=O)N[C@H]1CNC(=O)[C@@H]2CCCN2C(=O)[C@H]([C@H](C)CC)NC(=O)[C@H]([C@@H](C)O)NC(=O)CNC(=O)[C@H](CC(=O)O)NC(=O)CNC(=O)C(CC(=O)O)NC(=O)CNC(=O)[C@@H]2CCCCN2C1=O` (single isomer, unassigned), for which the MIC in experiment [1] (setting [8]) was determined as 16 µg/mL (≈ 11.6 µM).

Consider `CCCCCCCCCC(=O)N[C@@H](Cc1c[nH]c2ccccc12)C(=O)N[C@@H](CC(=O)O)C(=O)N[C@H]1CNC(=O)[C@@H]2CCCN2C(=O)[C@H]([C@H](C)CC)NC(=O)[C@H]([C@@H](C)O)NC(=O)CNC(=O)[C@H](CC(=O)O)NC(=O)CNC(=O)[C@H](CC(=O)O)NC(=O)CNC(=O)[C@@H]2CCCCN2C1=O`, for which the MIC in experiment [1] (setting [8]) is above 64 µg/mL.

Regarding `CCCCCCCCCCCCCCC(=O)N[C@@H](C)C(=O)N[C@@H](CC(=O)O)C(=O)N[C@H]1CNC(=O)[C@@H]2CCCN2C(=O)[C@H]([C@H](C)CC)NC(=O)[C@H]([C@@H](C)O)NC(=O)CNC(=O)[C@H](CC(=O)O)NC(=O)CNC(=O)C(CC(=O)O)NC(=O)CNC(=O)[C@@H]2CCCCN2C1=O` (single isomer, unassigned), in experiment [1] (setting [8]), the MIC was above 64 µg/mL.

The MIC is the least concentration at which growth counts as inhibited.
